Test results as given in patent publication US20260250630A1, “PROTEOMICS-BASED RECEPTOR-LIGAND MATCHING FOR OPTIMIZING STEM CELL REPROGRAMMING” (OKINAWA INSTITUTE OF SCIENCE AND TECHNOLOGY SCHOOL …, priority 2021, published 2026).
Entries after “also recorded” stand apart in the source; their conditions may differ.

How the values were obtained:
[1] = test system: human ipsc-derived neurons (iN); assay: Spontaneous synaptic currents in iPSC-derived neurons (iN); assay type: cell-based; conditions: addition of CNQX
Text: FIG. 14A-14E. The differentiated neurons (iN) in culture are making functional synapses. • A) DIC image of human ipsc-derived neurons (iN) in culture of DIV25.

[2] = test system: calyx of Held presynaptic terminals; assay: EPSC recording at the calyx of Held, short-term depression and recovery; assay type: cell-based, rat
Text: (§1) Wistar rats (postnatal day 13-15) of either sex were killed by decapitation under isoflurane anesthesia. Transverse brainstem slices (175-200 μm in thickness) containing the medial nucleus of the trapezoid body (MNTB) were cut in ice-cold solution containing (in mM): 200 sucrose, 2.5 KCl, 26 NaHCO3, 1.25 NaH2PO4, 6 MgCl2, 10 glucose, 3 myo-inositol, 2 sodium pyruvate, and 0.5 sodium ascorbate (pH 7.4 when bubbled with 95% O2 and 5% CO2, 310-320 mOsm) by using vibroslicer (VT1200S, Leica). Before recording, slices were incubated for 1 h at 37° C. in standard aCSF solution containing (in mM): 125 NaCl, 2 KCl, 26 NaHCO3, 1.25 NaH2PO4, 2 CaCl2), 1 MgCl2, 10 glucose, 3 myo-inositol, 2 sodium pyruvate, and 0.5 sodium ascorbate (pH 7.4 when bubbled with 95% O2 and 5% CO2, 310-320 mOsm), and maintained thereafter at room temperature (24-26° C.). MNTB principal neurons and calyx of Held presynaptic terminals were visually identified using a ×40 water immersion objective attached to an upright microscope (BX51WI, Olympus).
For recording of evoked EPSCs, simultaneous pre- and postsynaptic whole-cell recordings were made from a calyceal nerve terminal and postsynaptic cell. Throughout the experiments, presynaptic recordings were made in current-clamp mode, whereas postsynaptic recordings were made in voltage-clamp mode at a holding potential of −70 mV. Pipette solution for recording of presynaptic action potentials (APs) contained (mM): 110 K-gluconate, 10 L-glutamate, 30 KCl, 10 HEPES, 0.5 EGTA, 12 Na2-phosphocreatine, 3 MgATP, 1 MgCl2, 0.3 Na2GTP (315 mOsm, pH 7.3 adjusted with KOH), and that for postsynaptic recording contained (mM): 110 CsF, 30 CsCl, 10 HEPES, 5 EGTA, 1 MgCl2, 5 QX314-CI (300 mOsm, pH 7.3 adjusted with CsOH). EPSCs were evoked by current injection (0.5-1 nA, 1 ms) into the presynaptic terminal via a recording glass electrode, in the presence of bicuculline methiodide (10 µM) and strychnine hydrochloride (0.5 μM).

[3] = test system: calyx of Held presynaptic terminals; assay: Membrane capacitance measurement of exo-endocytosis at the calyx of Held; assay type: cell-based, rat; conditions: LP-935509 1 or 10 µM in presynaptic terminals
Text: as §1
Membrane capacitance measurement from the calyx of Held presynaptic terminals, in whole-cell configurations, were made at room temperature (RT, 26-27° C.). Data were acquired at a sampling rate of 50 KHz, using an EPC-10 patch-clamp amplifier controlled by PatchMaster software (HEKA) after on-line filtering at 5 KHz. Calyx of Held terminals were voltage-clamped at a holding potential of −80 mV and a sinusoidal voltage command with a peak-to-peak voltage of 60 mV was applied at 1 KHz. Aak1 inhibitor LP935509 (Axon MedChem) was dissolved in DMSO (0.1%), which was also included in pipette solution, and infused from whole-cell pipettes into calyceal terminals by diffusion. […]
Single-pulse step depolarization to +10 mV for 20 ms was used to induce presynaptic QCa. […] The amplitude of exocytic Cm change (ΔCm) was measured as the difference of Cm values between the baseline and those at 450-500 ms after depolarization. […] The half decay time of endocytosis was measured from the midpoint of ΔCm decay.

calyx of Held = assay: Simultaneous pre- and postsynaptic action potential recordings, fidelity of neurotransmission; assay type: cell-based, rat; conditions: p<0.01, n=6
Text: as §1
For recording postsynaptic action potentials (APs), simultaneous pre- and postsynaptic whole-cell recordings were made from calyceal terminals and postsynaptic MNTB principal neurons, both in current-clamp mode, in the presence of bicuculline methiodide (10 µM) and strychnine hydrochloride (0.5 μM). […]

[4] = from cumulative histograms of EPSC amplitudes

SMILES: N#Cc1cc2[nH]c(=O)c(=O)[nH]c2cc1[N+](=O)[O-] [CNQX]
- spontaneous synaptic currents in iN [1]: abolished

SMILES: COc1ncccc1-c1cnn2ccc(N3CCN(C(=O)OC(C)C)CC3)nc12 [LP-935509]
- recovery from STD (time constants of Ca2+-dependent fast and Ca2+-independent slow components) ([2]; calyx of Held): significantly prolonged
- short-term depression (STD) of EPSCs ([2]; calyx of Held loaded with LP-935509, 100 Hz train, 0.3 s, compared to controls, p<0.05, n=7): stronger STD
- pool size of readily releasable SVs [2, 4]: reduced
- release probability [2, 4]: without affecting
- exocytosis (exocytic capacitance change, ΔCm) [3]: did not indicate a significant reduction; also recorded: remained unchanged
- presynaptic Ca2+ current charge (QCa) [3]: remained unchanged
- endocytic capacitance change ([3]; p<0.05, n=6): significantly prolonged
- transmission fidelity (output/input AP ratio), level declined to (calyx of Held; 1 μM in presynaptic terminals, 100-Hz stimulation, within 40 s): ~ 50%
- fidelity of neurotransmission (ratio of postsynaptic APs to presynaptic APs) (calyx of Held; 1 μM): significantly impaired
